Data taken from patent US20210246140A1, “MODULATORS OF METABOTROPIC GLUTAMATE RECEPTOR 2” (The General Hospital Corporation, priority 2020, published 2021).

Legend:
[1] = system: other mGlu receptors (mGluR1, mGluR3, mGluR4, mGluR5, mGluR6, mGluR8); test: Selectivity among mGluR subtypes (Ca2+ mobilization assay and cAMP assay); format: cell-based; settings: mGluR1 and mGluR5 by Ca2+ mobilization; mGluR3, 4, 6, 8 by cAMP assay
Description: The Gq coupled receptors (mGluR1 and mGluR5) were tested using Ca^2+ mobilization assay. mGluR1 stable cell lines were plated into poly-L-lysine (PLL) coated 384-well black clear bottom cell culture plates with complete Basal Medium Eagle (BME) buffer, which was composed of 10% dialyzed FBS, penicillin G (100 units/mL), streptomycin (100 μg/mL) with tetracycline (1 μg/mL) at density of 20,000 cells in 40 μl per well for overnight. On the other hand, HEK-293 Cells transiently transfected using the calcium phosphate method with cDNA encoding mGluR5 for 40 h were plated into the plate with complete BME at density of 20,000 cells in 40 μL per well for 8 h. mGluR1 stable cells or cells transiently expressing mGluR5 were incubated with 20 μL of the calcium dye (FLIPR Calcium 4 Assay Kit; Molecular Devices) diluted in the assay buffer (1×FIBSS, 2.5 mM probenecid, and 20 mM HEPES, pH 7.4) for 45 min at 37° C. and 15 min at room temperature. To measure agonist activity of receptors, the drug plates were prepared with different concentrations of test or reference compound at 3 times the desired final concentration. […] Once loaded in FLIPR (Molecular Devices), basal fluorescence was measured for 10 s, then 10 μL of test or reference compounds were added, followed by continued fluorescence measurement for an additional 120 s. […]

Determination of Log P = format: physicochemical; settings: experimental lipophilicity
Description: Determination of Log P The Log P was determined using a reversed-phase HPLC method. First, seven reference compounds were examined to obtain the linear regression of the log P against the log of capacity factors by the expression: log Pow=a+b*log k. The Log P of these reference compounds was already been determined. The capacity factor k was calculated by the expression: k=(tR−t0)/t0. The retention time tR of test compound was determined on the HPLC (Agilent 1260 infinity II LC System, XTerra™ MS Cis 5μ 2.1×250 mm, methanol/water=75/25, 0.25 mL/min). The dead-time to was measured by using thiourea. The linear regression equation of the Log P against the log of capacity factors was generated in Excel: log Pow=3.049+2.429*log k, where R^2 was 0.9964. The retention time of compound 1, 2, and 7 was also determined on the HPLC under the same condition and each test was repeated three times (FIG. 5).
(§1) The experimental lipophilicity was measured by using liquid-liquid partition between n-octanol and water (“shake-flask method”) [see ref. 54]. […] The plasma protein binding comprises compounds' binding to albumin, α1-acid glycoprotein and lipoproteins once delivered to the bloodstream. This property was evaluated for compounds 1 and 2 by equilibrium dialysis [see ref. 56], where two chambers were separated by a dialysis membrane (MWCO 8 kD). The plasma protein bindings of 1 and 2 are 87.2% and 88.7%, respectively (see FIGS. 20 and 6). Therefore, the high plasma free fraction of compounds 1 and 2 (>10%) would allow enough free drug concentration in blood stream to reach the brain targets.

[2] = PAMPA-BBB (parallel artificial membrane permeation assay); settings: pH 7.4, 18 h
[3] = Plasma protein binding assay (equilibrium dialysis, RED device); format: in vitro ADME; settings: rat plasma
Description: Disposable RED device inserts (product 90006) were from Thermos Scientific (Waltham, Mass.). Each insert was made of two side-by-side chambers separated by a vertical cylinder of dialysis membrane (MWCO 8,000) validated for minimal non-specific binding. A stock solution of the test compound in DMSO was spiked into the rat plasma to reach a concentration of 10 μM. 400 μL of sample solution was placed into the sample chamber of the RED device, and 600 μL of phosphate-buffered saline (PBS) was added to the buffer chamber of the RED device. Samples were prepared in triplicates. The plate was covered with aluminum sealing cover and incubated at 37° C. on an orbital shaker at approximately 200 rpm for 5 h. After incubation, 300 μL of post-dialysis samples from the buffer and sample chambers were transferred to different microcentrifuge tubes. To the buffer sample was added 300 μL of plasma, and an equal volume of buffer was added to the collected plasma sample. 600 μL of cold acetonitrile was added to the samples, and the samples were vortexed and incubated for 30 min on ice and then were centrifuged at 14000 rpm for 10 min. Supernatant was transferred to vial for HPLC analysis (XTerra™ MS C18 5μ, 2.1×250 mm column; Gradient elution from 5% to 90% B in 30 min; 0.1 M ammonium formate in water (A) and acetonitrile (B); UV 254 nm; 100 μL of injection volume). The percentage of the test bound compound was calculated as % Free=(Concentration in buffer chamber/Concentration in plasma chamber)×100%; % Bound=100%−% Free (FIG. 6).
as §1

Log P (Determination of Log P): 3.65 | effective permeability Pe [2]: 9.2 ×10⁻⁶ cm/s | plasma protein binding ([3]; equilibrium dialysis, 10 μM): 87.2% | fraction unbound at 5 h, 10 μM ([3]; read-out: plasma free fraction): > 0.1
SMILES: COc1cc(C(F)(F)F)ccc1C1CCN(Cc2nc3ncccc3n2C)CC1 [Compound 1]
selectivity against other mGlu receptor subtypes [1]: > 100 fold
